Here are results for four compounds from US20110021565A1, “PIPERIDINE DERIVATIVES AS NK3 ANTAGONISTS” (priority 2007, published 2011).

Assay [1] deals with T1, recombinant human NK3 receptor (Homo sapiens, UniProt P29371).
T1 construct: expressed in transfected cells; host or cells: HEK293 cells, transient expression; membrane preparation
T1 sequence (P29371 1-465): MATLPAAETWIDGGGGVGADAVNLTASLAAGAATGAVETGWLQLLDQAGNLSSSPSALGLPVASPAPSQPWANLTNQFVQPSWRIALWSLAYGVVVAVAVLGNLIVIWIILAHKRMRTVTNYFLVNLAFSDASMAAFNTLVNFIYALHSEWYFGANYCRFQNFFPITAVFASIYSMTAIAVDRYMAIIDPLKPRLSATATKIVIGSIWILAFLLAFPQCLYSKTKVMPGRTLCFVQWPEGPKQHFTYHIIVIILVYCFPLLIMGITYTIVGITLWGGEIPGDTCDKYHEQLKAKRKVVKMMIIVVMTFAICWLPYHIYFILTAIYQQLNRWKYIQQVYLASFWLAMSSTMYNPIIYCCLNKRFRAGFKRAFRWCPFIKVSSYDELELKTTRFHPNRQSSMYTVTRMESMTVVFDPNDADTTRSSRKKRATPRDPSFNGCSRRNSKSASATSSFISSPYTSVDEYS
Put plainly: [3H]SR142801 competition binding assay. In short, it runs like this: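 Membranes from HEK293 cells transiently expressing the receptor (5 μg protein/well) incubated 75 min at RT with [3H]SR142801 at its KD and 10 compound concentrations (0.0003-10 μM), in pH 7.4 Tris buffer with MnCl2, phosphoramidon and BSA. Nonspecific binding defined with 10 μM SB222200; bound radioactivity counted after filtration. Ki from IC50 via Cheng-Prusoff; duplicates.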

Assay [2] deals with symptoms of schizophrenia. The conditions noted are these: phase II trial, cited from earlier work.
[3] abbreviates: [3H]SR142801, membranes of HEK293 cells transiently expressing recombinant human NK3 receptor, read-out: hNK3 Ki.

One may read the Ki as the dissociation constant of the complex between target and ligand, obtained from inhibition or displacement.

Like-named read-outs stand apart in the source and are kept apart here.

Consider `CCCN(C(C)=O)C1CCN(CCC(C)(C(=O)N[C@H](CC)c2ccccc2)c2ccc(Cl)c(Cl)c2)CC1` (stereo partly drawn) [Example 165, 4-[4-(Acetyl-propyl-amino)-piperidin-1-yl]-2-(3,4-dichloro-phenyl)-2-methyl-N-((R)-1-phenyl-propyl)-butyramide], for which the inhibitory constant (Ki) in assay [1] (setting [3]) is 14.5 nM.

Take `CC[C@H](NC(=O)C(C)(CCN1CCC(N(CC)C(C)=O)CC1)c1ccc(Cl)c(Cl)c1)c1ccccc1` (stereo partly drawn) [Example 168, 4-[4-(Acetyl-ethyl-amino)-piperidin-1-yl]-2-(3,4-dichloro-phenyl)-2-methyl-N-((S)-1-phenyl-propyl)-butyramide]: the inhibition constant (Ki) was 3 nM in assay [1] (setting [3]) and 3 nM in assay [1] (representative compounds, [3H]SR142801, HEK293 membranes, human NK3 receptor, read-out: Ki NK3 h).

For the compound `CC[C@@H](NC(=O)C(C)(CCN1CCC(N(CC)C(C)=O)CC1)c1ccc(Cl)c(Cl)c1)c1ccccc1` (stereo partly drawn) [Example 169, 4-[4-(Acetyl-ethyl-amino)-piperidin-1-yl]-2-(3,4-dichloro-phenyl)-2-methyl-N-((R)-1-phenyl-propyl)-butyramide], the inhibitory constant (Ki) in assay [1] (setting [3]) is 57.6 nM.

Consider `CC(=O)N(C)C1(c2ccccc2)CCN(CCC[C@]2(c3ccc(Cl)c(Cl)c3)CCCN(C(=O)c3ccccc3)C2)CC1` [SR 142,801, Osanetant], for which the “activity on positive symptoms of schizophrenia” value in assay [2] (altered behaviour, delusion, hallucinations, extreme emotions, excited motor activity, incoherent speech) is listed as “active on positive symptoms of schizophrenia”. The “activity on negative symptoms of schizophrenia” value in assay [2] (depression, anhedonia, social isolation, memory and attention deficits) was “inactive in the treatment of negative symptoms”.
